Data on nine molecules can be found in patent US11634425B2, “Pharmaceutical compounds” (priority 2019, dated 2023).

In series [1] the test system is RSV A2. The experiment in a line: RSV plaque reduction assay. Type of series: cell-based, respiratory syncytial virus (RSV). The conditions noted are these: mean of at least two experiments. An outline of the steps: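 EC50 is the 50% reduction in immunostained plaque count versus virus-control wells, interpolated from variable-slope 4-parameter fits and averaged over at least two runs. Hep-G2 cells were infected with 100 PFU/well RSV A2 premixed with compound, with the inoculum removed after 2 h. Incubation continued at 37 °C for 2 days under a CMC overlay with compound.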
A general note: Plaques are areas of infected cells; plaque reduction assays count them against a control.

Series [2] relates to Hep-G2 cells. In words: Cell cytotoxicity (CC50). The conditions noted are these: mean of at least two experiments. The class given is cell-based. An outline of the steps:
(§1)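 Values are means of ≥2 independent runs, rounded to whole units, from 4-parameter variable-slope curve fits. Toxicity measured in Hep-G2 cells run alongside RSV plaque-reduction assays.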

Series [3] can be described thus: in vitro. The class given is in vitro ADME. The conditions noted are these: 1 μM compound, 0.5 mg/mL protein; for half-life at 1 μM: microsomes, pH 7.4, read-out: Liver Microsomal Stability t1/2. In outline: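 Pooled liver microsomes (0.5 mg/mL protein) in 0.1 M phosphate pH 7.4 with 1 μM compound and 1 mM NADPH at 37° C., sampled at 0–45 min; minus-NADPH control at 45 min. Acetonitrile quench, LC-MS/MS; t1/2 and CLint from ln peak-area ratio vs time slope.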
In general terms: Liver microsomes are vesicles of endoplasmic reticulum, rich in cytochrome P450 enzymes.

A short description of series [4]: Cell cytotoxicity (CC50). The conditions noted are these: human; mean of at least two experiments. The class given is cell-based. An outline of the steps:
as §1

Series [5] can be described thus: Thermodynamic solubility. Type of series: physicochemical. The conditions noted are these: aqueous buffer, thermodynamic from solid; typically phosphate buffered saline pH 7.4, ambient temperature overnight. The protocol:
Test compound (2.5 mg of solid; n=1) was weighed in an amber glass vial and buffer (0.5 mL) was added (typically phosphate buffered saline pH 7.4). The solution was agitated at ambient temperature overnight using a vial roller system. The solution was then filtered (0.45 μm pore size; without pre-saturation). Duplicate aliquots (50 μL) are sampled from the filtrate and diluted with one volume of Milli-Q water and methanol (1:1 v/v) before analysis by HPLC-UV. A standard was prepared in DMSO at 10 mg/mL (n=1) which was then diluted 10-fold in Milli-Q water and methanol (1:1 v/v) to give a 1 mg/mL solution. The concentration of test compound in the filtrate was quantified relative to the concentration standard. Analysis was performed using a gradient HPLC-MS system.

The nature of series [6]: in vitro. The conditions noted are these: hepatocytes, 3 μM compound, read-out: Liver Hepatocyte Stability t1/2. Type of series: in vitro ADME. The procedure: Compounds were subjected to the following assays to investigate liver microsomal stability and hepatocyte stability.
Hepatocyte Incubation: Experimental Procedure
Cryopreserved pooled hepatocytes were purchased from a reputable commercial supplier and stored in liquid nitrogen prior to use. Williams E media supplemented with 2 mM L-glutamine and 25 mM HEPES and test compound (final substrate concentration 3 μM; final DMSO concentration 0.25%) are pre-incubated at 37° C. prior to the addition of a suspension of cryopreserved hepatocytes (final cell density 0.5×10^6 viable cells/mL in Williams E media supplemented with 2 mM L-glutamine and 25 mM HEPES) to initiate the reaction. The final incubation volume is 500 μL. Two control compounds were included with each species, alongside appropriate vehicle control. The reactions are stopped by transferring 50 μL of incubate to 100 μL acetonitrile containing internal standard at the appropriate time points. Samples were removed at 6 time points (0, 5, 15, 30, 45 and 60 min) over the course of a 60 min experiment. The termination plates are centrifuged at 2500 rpm at 4° C. for 30 min to precipitate the protein. Following protein precipitation, the sample supernatants were combined in cassettes of up to 4 compounds and analysed using generic LC-MS/MS conditions. From a plot of ln peak area ratio (compound peak area/internal standard peak area) against time, the gradient of the line is determined. Subsequently, half-life (t1/2) and intrinsic clearance (CLint) were calculated.

A short description of series [7]: in vivo. The class given is in vivo. The conditions noted are these: male Beagle dog. The procedure:
The pharmacokinetics of compounds were studied in vivo in dogs at doses of 0.5 mg/kg (IV) and 4 mg/kg (PO).
Male Beagle dogs were treated with experimental compounds via intravenous administration (n=2; 0.5 mg/kg) or oral administration (n=2; 3 or 4 mg/kg). Compounds were formulated as a solution in 20% dimethylacetamide/80% (2-hydroxypropyl)-β-cyclodextrin (20% w/v) (IV administration) or a solution in 10% dimethylacetamide/90% (2-hydroxypropyl)-β-cyclodextrin (20% w/v) (PO administration). […] Serial blood samples were collected from the jugular vein at 0.03, 0.08, 0.25, 0.5, 1, 2, 4, 6, 8 and 24 h post IV dosing of compound, and at 0.08, 0.25, 0.5, 1, 2, 4, 6, 8 and 24 h post oral dosing of compound, and plasma was prepared by centrifugation and stored immediately at −80° C. Samples were subsequently thawed, prepared for analysis by protein precipitation with acetonitrile, and analysed by tandem LCMS using electrospray ionisation using a matrix-matched calibration curve. PK parameters were calculated from the resulting data.

Series [8] relates to RSV. The conditions noted are these: Antimicrobial Agents and Chemotherapy, September 2007, 3346-3353; cited from earlier work.
The mark [9] stands for this setting: human respiratory syncytial virus, HepG2, Hep-G2 cells.

What is called EC50 is the midpoint of the concentration-response curve. The low end stands for an effect from little substance, the high end for a need for much substance. In general, CC50 refers to the concentration at which the toxic effect on the cells reaches its halfway point. The term thermodynamic solubility denotes solubility found after equilibrating the solid with the medium. As a reminder, the Vd is the apparent volume that relates the amount in the body to the concentration in plasma or blood. In general, clearance refers to the rate of elimination divided by the concentration. A lower clearance goes with inefficient removal. In general, Cmax refers to the highest concentration seen after dosing.

In brackets after ≈: the same amount, converted by molar mass. Like-named read-outs stand apart in the source and are kept apart here. A value given as a limit tells only on which side of the number the result lay.

Regarding “2-[2-Methyl-6-(propan-2-ylamino)pyridin-3-yl]-N-[(3S)-9-fluoro-2-oxo-5-phenyl-1,3-dihydro-1,4-benzodiazepin-3-yl]pyrazolo[1,5-a]pyrimidine-3-carboxamide [Example 61]”, in series [1] (Hep-G2 cells), the concentration giving a half-maximal response (EC50) came to 25 nM. In addition, the cytotoxic concentration (CC50) in series [2] is over 25000 nM. The “Liver Microsomal Stability t1/2” value in series [3] (dog) is 0.392 h; in series [3] (human) it was 2.2 h; in series [3] (rat), 1.07 h.
As for “2-[4-Methyl-6-(propan-2-ylamino)pyridin-3-yl]-N-[(3S)-9-fluoro-2-oxo-5-phenyl-1,3-dihydro-1,4-benzodiazepin-3-yl]pyrazolo[1,5-a]pyrimidine-3-carboxamide [Example 62]”, the EC50 in series [1] (Hep-G2 cells) is 74 nM. In series [2], the CC50 is over 25000 nM. Moreover, the “Liver Microsomal Stability t1/2” value in series [3] (dog) was 0.828 h; in series [3] (human), over 2.33 h; in series [3] (rat), 1.19 h.
Molecule `Cc1nc2ccc(Cl)nn2c1C(=O)N[C@H]1N=C(c2ccccc2)c2cccc(F)c2NC1=O` [Example 20, 6-Chloro-N-[(3S)-9-fluoro-2-oxo-5-phenyl-1,3-dihydro-1,4-benzodiazepin-3-yl]-2-methylimidazo[1,2-b]pyridazine-3-carboxamide] gave an EC50 in series [1] (setting [9]) of 114 nM. The molecule also displayed a CC50 in series [4] of over 25000 nM. The molecule further yielded a solubility (thermodynamic) in series [5] of 3.84 µM (≈ 1.78 µg/mL). The half-life at 1 μM in series [3] (dog) is over 2.33 h; in series [3] (human), over 2.33 h; in series [3] (rat), 1.68 h. Moreover, the half-life at 3 μM was found to be 2.2 h in series [6] (dog), 2.18 h in series [6] (human) and 2.92 h in series [6] (rat). Also, the Vd in series [7] (in vivo, IV 0.5 mg/kg) amounted to 1.2 L/kg. Further, the clearance in series [7] (in vivo, IV 0.5 mg/kg) turned out to be 1.6 mL/min/kg. The same molecule returned a peak concentration (Cmax) in series [7] (in vivo, IV 0.5 mg/kg / PO 3 or 4 mg/kg study) of 3850 ng/mL. For the same molecule, the half-life in series [7] (in vivo, IV 0.5 mg/kg, read-out: IV t1/2 (converted)) is 10.3 h; in series [7] (in vivo, PO 3 or 4 mg/kg, read-out: PO t1/2 (converted)), 19.2 h. Besides, the AUC(0-t) in series [7] (in vivo, PO 3 or 4 mg/kg, read-out: PO AUClast) turned out to be 43700 ng·h/mL. Moreover, in series [7] (8 h, IV 0.5 mg/kg / PO 3 or 4 mg/kg study), the “C 8 h” value was determined as 1581 ng/mL. The molecule also had a F in series [7] (IV 0.5 mg/kg, PO 3 or 4 mg/kg) of 118%.
Consider `Cc1nc2ccc(Cl)nn2c1C(=O)N[C@H]1N=C(c2ccccc2)c2ccccc2NC1=O` [Example 21, 6-Chloro-2-methyl-N-[(3S)-2-oxo-5-phenyl-1,3-dihydro-1,4-benzodiazepin-3-yl]imidazo[1,2-b]pyridazine-3-carboxamide], for which the half-maximal effective concentration (EC50) in series [1] (setting [9]) was determined as 147 nM. The molecule further came in with a CC50 in series [4] of over 25000 nM. Besides, the thermodynamic solubility in series [5] stood at 4.64 µM (≈ 2.06 µg/mL). Also, the results for the half-life at 1 μM in series [3] (dog), in series [3] (human) and in series [3] (rat) were 2.95 h, 2.15 h and 1.04 h, respectively. Besides, the half-life at 3 μM was found to be 2.55 h in series [6] (dog), 2.52 h in series [6] (human) and 1.5 h in series [6] (rat).
The molecule `Cc1ccc2nc(-c3ccc(N4CCOCC4)nc3)c(C(=O)N[C@H]3N=C(c4ccccc4)c4cccc(F)c4NC3=O)n2n1` [Example 105, N-[(3S)-9-fluoro-2-oxo-5-phenyl-1,3-dihydro-1,4-benzodiazepin-3-yl]-6-methyl-2-(6-morpholin-4-ylpyridin-3-yl)imidazo[1,2-b]pyridazine-3-carboxamide] came in with an EC50 in series [1] (Hep-G2 cells) of 38 nM. In addition, in series [2], the CC50 is over 25000 nM.
As for `O=C(N[C@H]1N=C(c2ccccc2)c2cccc(F)c2NC1=O)c1c(-c2ccc3[nH]ncc3c2)nc2cccnn12` [Example 126, N-[(3S)-9-fluoro-2-oxo-5-phenyl-1,3-dihydro-1,4-benzodiazepin-3-yl]-2-(1H-indazol-5-yl)imidazo[1,2-b]pyridazine-3-carboxamide], in series [1] (Hep-G2 cells), a half-maximal effect (EC50) was put at 56 nM. This molecule returned a CC50 in series [2] of over 25000 nM. Besides, the results for the “Liver Microsomal Stability t1/2” value in series [3] (dog), in series [3] (human) and in series [3] (rat) were 0.563 h, 5.2 h and 6.88 h, respectively.
`O=C(Nc1ccccc1F)N[C@H]1N=C(c2ccccc2)c2ccccc2NC1=O` [RSV604]: the anti-RSV activity result in series [8] is reported as “sub-micromolar”.
In series [1] (Hep-G2 cells), “N-[(3S)-9-Fluoro-2-oxo-5-phenyl-1,3-dihydro-1,4-benzodiazepin-3-yl]-2-(2-fluorophenyl)-7-methylpyrazolo[1,5-a]pyrimidine-3-carboxamide [Example 38]” came in with an EC50 of 27 nM. This molecule registered a CC50 in series [2] of over 25000 nM. Also, the “Liver Microsomal Stability t1/2” value in series [3] (dog) was 2.75 h; in series [3] (human), over 2.33 h; in series [3] (rat) it was 1.98 h.
With “N-[(3S)-9-Fluoro-2-oxo-5-phenyl-l,3-dihydro-1,4-benzodiazepin-3-yl]-2-phenylpyrazolo[1,5-a]pyrimidine-3-carboxamide [Example 17]”, the half-maximal effective concentration (EC50) in series [1] (Hep-G2 cells) came to 90 nM. This molecule displayed a CC50 in series [2] of over 25000 nM.
